Measurements published in patent US20220218708A1, “METHODS FOR TREATING SMARCB1 DEFICIENT CANCER OR PAZOPANIB RESISTANT CANCER” (The Institute of Cancer Research:Royal Cancer Hospital, priority 2016, published 2022).

Experiments:
Assay type in all cases: cell-based
[1] = test system: A204 cells (parental, MRT cell line); test: Cell viability (WST-1) dose response; conditions: for effect on cell viability: A204 cells, dose response; for IC50: Homo sapiens, cell viability
Method: (§1) For SILAC experiments, A204 cells and resistant sublines were cultured in SILAC DMEM media (Thermo Fisher Scientific) supplemented with light lysine and arginine (ROKO) (Sigma) and heavy lysine and arginine (R10K8) (Goss Scientific) respectively.
(§2) 2000 cells/well were seeded in a 96-well plate and treated with inhibitors at the indicated dose and combinations for 24 h for apoptosis measurement by Caspase-Glo 3/7 Assay (Promega), or for 72 hours in cell viability measurements by WST-1 (Abcam), following the manufacturer's recommendations. IC50 data were generated from dose-response curves fitted using a four-parameter regression fit in PRISM 5 software (GraphPad).

[2] = test system: Pazopanib resistant A204 cells (PazR); test: Cell viability in acquired resistant subline; conditions: Homo sapiens
Method: (§3) Cells were grown initially in DMEM media containing drug concentration of 500 nM. The drug was incremented when the cells had proliferated to near confluency alongside minimal visible cell death. Drug concentration was incremented from 2 μM, 3 μM and 5 μM in a stepwise manner over 6 weeks. A final drug concentration of 5 μM was maintained in resistant cells. Media and drug were replenished twice weekly.
as §2

PazR cells = test: Annexin V staining, automated imaging
Method: as §3
Details for annexin V staining and siRNA transfections are as follows. For Annexin V staining, 3000 cells/well were seeded into 96-well CellCarrier plates (Perkin Elmer). 24 h after seeding, drugs were added and incubated for an additional 48 h. FITC-Annexin V (BD Biosciences) and Hoechst 33342 (Tocris) diluted in 10× annexin binding buffer (0.1M HEPES, 1.4M NaCl, 25 mM CaCl2) was added and incubated at 37° C. for 15 minutes. Plates were imaged using an Operetta high-content imager (Perkin Elmer). Images were analysed using Harmony software (Perkin Elmer), and annexin positivity defined as number of annexin-FITC-positive cells relative to total number of Hoechst-positive nuclei. The interaction between drugs was analysed by the Chou and Talalay median effect principle as described (Todd et al., 2014). siRNA transfections were performed as follows, 2000 cells/well were reverse transfected in 96-well plates with SMARTpool siRNAs (Dharmacon) using Lullaby reagent (Oz Biosciences). Where indicated, cells were treated with vehicle or drug 24 h post transfection. Apoptosis and cell viability were measured using Caspase 3/7 Glo and Cell Titre Glo (Promega), respectively, 72-96 h post transfection according to manufacturer's instructions and normalised to cells transfected with a non-targeting siRNA pool.

AKT phosphorylation = test: Immunoblot of AKT phosphorylation; conditions: MRT cells; drug treatment for 1 hour (FIG. 3H)
Method: (§4) After the indicated treatments, cells were lysed in RIPA lysis buffer at 4° C. Lysates were loaded onto SDS-PAGE gels followed by blotting onto PVDF membranes.
(§5) Details of antibodies, immunoprecipitation and immunofluorescence analyses are as follows. For immunoblotting, cells were lysed in RIPA lysis buffer supplemented with protease and phosphatase inhibitors (Thermo Pierce) at 4° C. Lysates were loaded onto SDS-PAGE gels followed by blotting onto PVDF membranes as described (Iwai et al., 2013). Blots were probed with primary antibodies followed by corresponding horseradish peroxidase-conjugated secondary antibodies. Primary antibodies include anti-PDGFRα #3174, CST; anti-pAKT (S473) #4058, CST; anti-AKT #4691, CST; anti-pERK-T202/Y204 #4370, CST; anti-ERK #9102, CST; anti-FGFR1 #76464, abcam; anti-BAF47 (SMARCB1) #61211, BD; anti-TFR #13-6890, ThermoFisherScientific; anti-pY1000 #8954, CST and anti-α-Tubulin #T5168, Sigma. Secondary antibodies include Polyclonal Goat Anti-Rabbit HRP #P0448, Dako and Anti-Mouse HRP #G32-62G-1000, Signalchem. Immunoreactive bands were visualized by chemiluminescence (Amersham) and the blots were exposed to x-ray XAR film (Kodak).

ERK1/2 phosphorylation = test: Immunoblot of ERK1/2 phosphorylation; conditions: MRT cells; drug treatment for 1 hour (FIG. 3H)
Method: as §4, §5

PDGFRα phosphorylation = molecular target: T1, PDGFRα phosphorylation (Homo sapiens, UniProt P16234); test: Immunoprecipitation of PDGFRα and phosphotyrosine immunoblot; conditions: A204 cells; 1 μM for 1 hour
T1 construct: Immunoprecipitation of PDGFRα followed by immunoblotting with phosphotyrosine-specific antibody (PY1000) in A204 cells; endogenous in cells; host or cells: A204 cells
Method: For immunoprecipitation, cells were lysed in RIPA lysis buffer (contained 1% Triton) supplemented with protease and phosphatase inhibitors (Thermo Pierce) at 4° C. After microcentrifugation at 2,000 rpm. for 10 min, 200 μg of lysate was diluted in 200 ul lysis buffer. […] Protein G plus agarose beads were added and incubated for three hours at 4° C. to collect immune complexes, washed five times with lysis buffer and eluted in sample buffer. Proteins were resolved by SDS-PAGE, transferred to PVDF membrane and immunoblotting was performed as described above.

HT1080 cells = test: Cell viability (WST-1) dose response; conditions: Homo sapiens, HT-1080, 72 hours
Method: (§6) Cells were cultured in DMEM (A204, G402, Saos2, U2OS, HT1080, SW684, SW872, SW982, Hs729T, RUCH-3, T9195 and AN3CA), RPMI (RMS-YM and SJSA-1) or McCoy5A (MES-SA) media supplemented with 10% FBS/2 mM glutamine/100 units/ml penicillin/[…] streptomycin in 95% air/5% CO2 atmosphere at 37° C. For SILAC experiments, A204 cells and resistant sublines were cultured in SILAC DMEM media (Thermo Fisher Scientific) supplemented with light lysine and arginine (ROKO) (Sigma) and heavy lysine and arginine (R10K8) (Goss Scientific) respectively.
as §2

Hs729T cells = test: Cell viability (WST-1) dose response; conditions: 72 hours
Method: as §6, §2

MES-SA cells = test: Cell viability (WST-1) dose response; conditions: Homo sapiens, 72 hours
Method: as §6, §2

RMS-YM cells = test: Cell viability (WST-1) dose response; conditions: 72 hours
Method: as §6, §2

RUCH-3 cells = test: Cell viability (WST-1) dose response; conditions: 72 hours
Method: as §6, §2

SAOS2 cells = test: Cell viability (WST-1) dose response; conditions: Homo sapiens, SAOS-2, 72 hours
Method: as §6, §2

SJSA-1 cells = test: Cell viability (WST-1) dose response; conditions: Homo sapiens, 72 hours
Method: as §6, §2

SW684 cells = test: Cell viability (WST-1) dose response; conditions: Homo sapiens, 72 hours
Method: as §6, §2

SW872 cells = test: Cell viability (WST-1) dose response; conditions: Homo sapiens, 72 hours
Method: as §6, §2

SW982 cells = test: Cell viability (WST-1) dose response; conditions: Homo sapiens, 72 hours
Method: as §6, §2

T91-95 cells = test: Cell viability (WST-1) dose response; conditions: 72 hours
Method: as §6, §2

U2OS cells = test: Cell viability (WST-1) dose response; conditions: Homo sapiens, 72 hours
Method: as §6, §2

[3] = test system: G402 cells (MRT cell line); test: Cell viability (WST-1) dose response; conditions: for IC50: Homo sapiens, G-402, G402, cell viability, 72 hours; for effect on cell viability: G402 cells, dose response
Method: as §1, §2

[4] = test system: Dasatinib resistant A204 cells (DasR); test: Cell viability in acquired resistant subline; conditions: Homo sapiens
Method: as §3, §2

[5] = test system: Sunitinib resistant A204 cells (SunR); test: Cell viability in acquired resistant subline; conditions: Homo sapiens
Method: as §3, §2

[6] = test system: MRT cells (A204 and G402); test: Apoptosis by Caspase-Glo 3/7 assay; conditions: caspase 3/7 activity
Method: as §2

[7] = 72 h, Pazopanib resistant A204 cell line, single and combination drug treatment, Table S3
[8] = A204 Pazopanib resistant subline, cell viability, Table S2

T1 sequence (P16234 24-1089): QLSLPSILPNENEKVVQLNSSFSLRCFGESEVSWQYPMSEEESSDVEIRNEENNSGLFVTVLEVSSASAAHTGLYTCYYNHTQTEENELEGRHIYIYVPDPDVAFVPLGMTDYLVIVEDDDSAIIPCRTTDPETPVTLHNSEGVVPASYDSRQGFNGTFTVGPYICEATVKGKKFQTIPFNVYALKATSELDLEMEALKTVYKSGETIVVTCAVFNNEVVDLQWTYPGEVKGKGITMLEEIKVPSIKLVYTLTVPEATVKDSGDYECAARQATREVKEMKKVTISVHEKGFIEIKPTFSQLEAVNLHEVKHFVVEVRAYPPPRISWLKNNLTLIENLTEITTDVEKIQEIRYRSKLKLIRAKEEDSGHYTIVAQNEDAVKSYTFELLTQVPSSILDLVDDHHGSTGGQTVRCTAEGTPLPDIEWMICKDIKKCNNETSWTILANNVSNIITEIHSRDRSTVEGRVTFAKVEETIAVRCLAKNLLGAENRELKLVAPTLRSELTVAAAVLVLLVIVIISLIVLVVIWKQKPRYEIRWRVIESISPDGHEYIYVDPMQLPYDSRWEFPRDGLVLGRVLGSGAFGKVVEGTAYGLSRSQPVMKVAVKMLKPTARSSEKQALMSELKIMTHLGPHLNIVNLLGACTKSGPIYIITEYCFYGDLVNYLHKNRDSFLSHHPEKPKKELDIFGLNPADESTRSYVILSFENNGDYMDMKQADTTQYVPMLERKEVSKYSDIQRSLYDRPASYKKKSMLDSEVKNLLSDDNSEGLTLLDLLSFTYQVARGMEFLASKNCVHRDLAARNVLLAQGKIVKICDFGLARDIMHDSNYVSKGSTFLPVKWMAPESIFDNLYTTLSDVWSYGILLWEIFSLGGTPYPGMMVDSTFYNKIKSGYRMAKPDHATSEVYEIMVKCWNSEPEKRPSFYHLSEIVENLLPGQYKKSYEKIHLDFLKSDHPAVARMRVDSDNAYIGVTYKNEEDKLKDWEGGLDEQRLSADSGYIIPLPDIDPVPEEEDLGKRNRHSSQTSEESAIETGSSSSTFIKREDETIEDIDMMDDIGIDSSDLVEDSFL

IC50 (HT1080 cells) [µM]	IC50 (SJSA-1 cells) [µM]	IC50 (SW684 cells) [µM]	IC50 (SW872 cells) [µM]	IC50 (SW982 cells) [µM]	IC50 (U2OS cells) [µM]	Molecule	effect on cell viability [1]	IC50 [2, 7] [µM]	proportion of apoptotic cells compared to vehicle control (PazR cells)	IC50 (Hs729T cells) [µM]	IC50 (MES-SA cells) [µM]	IC50 (RMS-YM cells) [µM]	IC50 (RUCH-3 cells) [µM]	IC50 (SAOS2 cells) [µM]	IC50 (T91-95 cells) [µM]	IC50 ([1]; A204, 72 hours, Table S1) [µM]	IC50 ([1]; A204 Parental, Table S2) [µM]	IC50 [3] [µM]	IC50 [4] [µM]	IC50 [2, 8] [µM]	further results
–	–	–	–	–	–	CCN1CCN(c2ccc(Nc3cc(N(C)C(=O)Nc4c(Cl)c(OC)cc(OC)c4Cl)ncn3)cc2)CC1 [BGJ398]	reduced viability	0.247	significant increase	–	–	–	–	–	–	–	–	–	–	–	AKT phosphorylation (AKT phosphorylation): no effect; ERK1/2 phosphorylation (ERK1/2 phosphorylation): decreased; PDGFRα phosphorylation (PDGFRα phosphorylation): no effects
> 10	> 10	0.0624	1.04	0.188	> 10	Cc1nc(Nc2ncc(C(=O)Nc3c(C)cccc3Cl)s2)cc(N2CCN(CCO)CC2)n1 [Dasatinib, dasatinib]	–	–	–	> 10	> 10	> 10	> 10	1.15	> 10	0.0418	0.0418	0.0623	> 10	> 10	IC50 [5]: > 10 µM
> 10	> 10	> 10	> 10	> 10	> 10	Cc1ccc(Nc2nccc(N(C)c3ccc4c(C)n(C)nc4c3)n2)cc1S(N)(=O)=O [Pazopanib, pazopanib]	–	> 10	no effect	> 10	> 10	> 10	> 10	> 10	> 10	0.219	0.245	0.238	> 10	> 10	IC50 [5]: > 10 µM
–	–	–	–	–	–	Cc1ccc(C(=O)Nc2ccc(CN3CCN(C)CC3)c(C(F)(F)F)c2)cc1C#Cc1cnc2cccnn12 [Ponatinib, 3-(2-imidazo[1,2-b]pyridazin-3-ylethynyl)-4-methyl-N-[4-[(4-methyl-1-piperazinyl)methyl]-3-(trifluoromethyl)phenyl]-benzamide]	sensitive	0.272	significant increase	–	–	–	–	–	–	–	–	–	–	–	effect on cell viability [3]: sensitive; apoptosis [6]: enhanced apoptosis; AKT phosphorylation (AKT phosphorylation): suppression; ERK1/2 phosphorylation (ERK1/2 phosphorylation): suppression
> 10	> 10	> 10	> 10	0.582	> 10	CCN(CC)CCNC(=O)c1c(C)[nH]c(/C=C2\C(=O)Nc3ccc(F)cc32)c1C [Sunitinib, sunitinib]	–	–	–	> 10	> 10	> 10	> 10	4.57	> 10	0.0363	0.0363	0.0369	5.01	> 10	IC50 [5]: > 10 µM
–	–	–	–	–	–	AZD4547	ineffective	–	–	–	–	–	–	–	–	–	–	–	–	–	effect on cell viability [3]: ineffective
